Assay in all cases: cells
The test system of one assay is SW620. Set-up: species or system SW620 MTHFD2-/-, HCT116, PA-TU-8988T; Resazurin cell viability dose-response in 384-well plates, fluorescence at 595 nm, logistic fit. The settings on record: Homo sapiens, SW-620, 96 h, D=Vehicle, 96 h viability, no metabolite rescue (vehicle), read-out: EC50 compound.
A further assay concerns HCT116. Set-up: species or system SW620, SW620 MTHFD2-/-, PA-TU-8988T; Resazurin cell viability dose-response in 384-well plates, fluorescence at 595 nm, logistic fit. The settings on record: Homo sapiens, HCT-116, 96 h, Figure 1=Extended Data Fig. 2a; C=RPMI+GlutaMAX (10% FBS, 1% P/S); D=Vehicle; 96 h viability, no metabolite rescue (vehicle); read-out: EC50 compound.
The subject of a further assay is SW620 MTHFD2 -/-. Also noted: species or system HCT116, PA-TU-8988T; Resazurin cell viability dose-response in 384-well plates, fluorescence at 595 nm, logistic fit. The settings on record: Homo sapiens, SW-620, 96 h, C=RPMI+GlutaMAX (5% dFBS, 1% P/S), D=Vehicle, 96 h viability, no metabolite rescue (vehicle), read-out: EC50 compound.
In a further assay the test system is SW620 WT. Also noted: species or system SW620 MTHFD2-/-, HCT116, PA-TU-8988T; Resazurin cell viability dose-response in 384-well plates, fluorescence at 595 nm, logistic fit. The settings on record: Homo sapiens, SW-620, 96 h, D=Vehicle, 96 h viability, no metabolite rescue (vehicle), read-out: EC50 compound.
A further assay has as its system SW620 MTHFD2-/-. Set-up: species or system HCT116, PA-TU-8988T; Resazurin cell viability dose-response in 384-well plates, fluorescence at 595 nm, logistic fit. The settings on record: Homo sapiens, SW-620, 96 h, C=RPMI+GlutaMAX (5% dFBS, 1% P/S), D=Vehicle, 96 h viability, no metabolite rescue (vehicle), read-out: EC50 compound.
The subject of a further assay is PA-TU-8988T. Set-up: species or system SW620, SW620 MTHFD2-/-, HCT116; Resazurin cell viability dose-response in 384-well plates, fluorescence at 595 nm, logistic fit. The settings on record: Homo sapiens, PaTu 8988t, 96 h, Figure 1=Extended Data Fig. 3e; C=DMEM+GlutaMAX (5% dFBS, 1% P/S); D=Vehicle; 96 h viability, no metabolite rescue (vehicle); read-out: EC50 compound.

[1] abbreviates: Figure 1=Extended Data Fig. 2b, C=RPMI+GlutaMAX (10% FBS, 1% P/S).
Where [2] appears, read: Figure 1=Extended Data Fig. 2c, C=RPMI+GlutaMAX (10% FBS, 1% P/S).
[3] abbreviates: C=RPMI+GlutaMAX (5% FBS, 1% P/S).
The mark [4] stands for this setting: Figure 1=Extended Data Fig. 3b, C=RPMI+GlutaMAX (5% dFBS, 1% P/S).
The mark [5] stands for this setting: Figure 1=Extended Data Fig. 3c, C=RPMI+GlutaMAX (5% dFBS, 1% P/S).

pEC50: −log10 of the molar value. Read-outs that look alike come from different tables or passages of the source.

Regarding `O=c1[nH]cc(F)c(=O)[nH]1` [5-FU], the pEC50 in the assay on SW620 (Figure 1=2f, C=RPMI+GlutaMAX (10% FBS, 1% P/S)) is 5.27; with SW620 (setting [1]), 5.29; in the assay with SW620 (setting [2]), 5.33; in the assay with HCT116 it was 5.67.
With `Cc1c(N2CCN(C)[C@@H](C)C2)ccc2c3c(c(=O)oc12)CN(C(=O)c1ccc(NS(C)(=O)=O)c(OC(F)(F)F)c1)CC3` [DS18561882], the pEC50 is less than 5.00 in the assay with SW620 (setting [3]); 6.31 in the assay with SW620 (Figure 1=1d, C=RPMI+GlutaMAX (10% FBS, 1% P/S)); 6.02 in the assay on SW620 (Figure 1=3d, C=RPMI+GlutaMAX (5% dFBS, 1% P/S)); 6.49 in the assay with SW620 (Figure 1=Extended Data Fig.5d, C=RPMI+GlutaMAX (5% dFBS, 1% P/S)); 6.26 in the assay on SW620 MTHFD2 -/- (Figure 1=3o); 7.24 in the assay on SW620 MTHFD2 -/- (Figure 1=Extended Data Fig. 3d). Further, the pEC50 in the assay with SW620 WT (Figure 1=3k, C=RPMI+GlutaMAX (5% dFBS, 1% P/S)) is 6.02; in the assay with SW620 WT (setting [4]) it was 6.11; in the assay on SW620 MTHFD2-/- (Figure 1=6f), 6.79.
`CN(Cc1cnc2nc(N)nc(N)c2n1)c1ccc(C(=O)N[C@@H](CCC(=O)O)C(=O)O)cc1` [MTX]: the pEC50 was 7.57 in the assay on SW620 (C=HPLM (5% dFBS, 1% P/S)); 7.91 with SW620 (setting [3]); 7.77 in the assay on SW620 (Figure 1=2e, C=RPMI+GlutaMAX (10% FBS, 1% P/S)); 8.15 in the assay with SW620 (Figure 1=3c, C=RPMI+GlutaMAX (5% dFBS, 1% P/S)); 8.04 in the assay with SW620 (setting [1]); 8.00 in the assay on SW620 (setting [2]). The pEC50 with SW620 (Figure 1=Extended Data Fig.5c, C=RPMI+GlutaMAX (5% dFBS, 1% P/S)) is 7.97; in the assay with SW620 MTHFD2 -/- (Figure 1=3n), 8.97; in the assay on SW620 MTHFD2 -/- (Figure 1=Extended Data Fig. 3d), 8.29; in the assay with SW620 WT (Figure 1=3j, C=RPMI+GlutaMAX (5% dFBS, 1% P/S)), 8.20; in the assay on SW620 WT (Figure 1=6k, C=RPMI+GlutaMAX (5% dFBS, 1% P/S)) it was 8.22; in the assay with SW620 WT (setting [4]) it was 8.14. The negative-log EC50 (pEC50) is 8.19 in the assay on SW620 WT (setting [5]), 8.02 with HCT116, 7.51 in the assay with PA-TU-8988T and 8.92 in the assay on SW620 MTHFD2-/- (Figure 1=6e).
`Cc1[nH]nc2c1C(c1cc(CO)cc(-c3ccccc3)c1)(C(C)C)C(C#N)=C(N)O2` (stereo not drawn) [SHIN1]: the pEC50 with SW620 (Figure 1=1e, C=RPMI+GlutaMAX (10% FBS, 1% P/S)) was 5.80; with SW620 MTHFD2-/- (Figure 1=6g), 8.63.
For `Nc1nc(N)c(CC(=O)Nc2cnc(C(=O)N[C@@H](CCC(=O)O)C(=O)O)c(F)c2)c(=O)[nH]1` [TH9619], the pEC50 with SW620 (C=HPLM (5% dFBS, 1% P/S)) is 7.95; with SW620 (setting [3]), 7.60; in the assay on SW620 (Figure 1=1b, C=RPMI+GlutaMAX (10% FBS, 1% P/S)) it was 7.69; in the assay with SW620 (Figure 1=3a, C=RPMI+GlutaMAX (5% dFBS, 1% P/S)), 6.22; in the assay on SW620 (setting [1]), 7.56; in the assay on SW620 (setting [2]), 7.66. Also, the pEC50 is 6.59 with SW620 (Figure 1=Extended Data Fig. 5j, C=RPMI+GlutaMAX (5% dFBS, 1% P/S)); 6.24 in the assay with SW620 (Figure 1=Extended Data Fig.5a, C=RPMI+GlutaMAX (5% dFBS, 1% P/S)); 6.36 in the assay with SW620 (Figure 1=Extended Data Fig.5f, C=RPMI+GlutaMAX (5% dFBS, 1% P/S)); 6.62 in the assay on SW620 (Figure 1=Extended Data Fig.5h, C=RPMI+GlutaMAX (5% dFBS, 1% P/S)); 9.20 with SW620 MTHFD2 -/- (Figure 1=3l); 8.77 in the assay with SW620 MTHFD2 -/- (Figure 1=Extended Data Fig. 3d). Also, the pEC50 is 5.85 with SW620 WT (Figure 1=6i, C=RPMI+GlutaMAX (5% dFBS, 1% P/S)); 6.00 with SW620 WT (Figure 1=3h, C=RPMI+GlutaMAX (5% dFBS, 1% P/S)); 6.25 in the assay on SW620 WT (setting [4]); 6.16 with SW620 WT (setting [5]); 7.77 in the assay with SW620 WT (Figure 1=Extended Data Fig. 3f, C=RPMI+GlutaMAX (5% dFBS, 1% P/S, 10 uM Hypoxanthine)); 7.28 with HCT116. For the same compound, the pEC50 in the assay on PA-TU-8988T was 7.65; with SW620 MTHFD2-/- (Figure 1=6c), 8.91.
